Activity calls are given as the source filed them. The rule behind the calls is not given here.
Key:
[1] = test system: Pseudomonas aeruginosa; assay: Synergistic antibacterial activity against Pseudomonas aeruginosa ATCC 27853 assessed as fold reduction in imipenem MIC incubated for 18 hrs by two-dimensional microdilution checkerboard assay; type: functional
[2] = test system: Pseudomonas aeruginosa; assay: Synergistic antibacterial activity against Pseudomonas aeruginosa ATCC 27853 infected in female KM mouse assessed as wound healing rate in skin at 200 ug/ml applied topically measured after 3 days in presence of imipenem (reference value: 36.2 %); type: functional; conditions: dose 200 µg/ml; route top; time 3 day
[3] = test system: Escherichia coli; assay: Binding affinity to CM5 chip-immobilized recombinant N-terminal His-tagged Escherichia coli BL21 NagZ extracted from Escherichia coli BL21 assessed as relative response by SPR analysis
[4] = Inhibition of recombinant N-terminal His-tagged Escherichia coli BL21 NagZ extracted from Escherichia coli BL21 using pNP-GlcNAc as substrate by absorbance based assay
[5] = test system: Pseudomonas aeruginosa; assay: Synergistic antibacterial activity against Pseudomonas aeruginosa ATCC 27853 infected in female KM mouse assessed as wound healing rate in skin at 200 ug/ml applied topically measured after 10 days in presence of ceftazidime relative to control; type: functional; conditions: dose 200 µg/ml; route top; time 10 day
[6] = test system: Pseudomonas aeruginosa; assay: Synergistic antibacterial activity against Pseudomonas aeruginosa ATCC 27853 infected in female KM mouse assessed as wound healing rate in skin at 200 ug/ml applied topically measured after 3 days in presence of ceftazidime (reference value: 36.2 %); type: functional; conditions: dose 200 µg/ml; route top; time 3 day
[7] = test system: Pseudomonas aeruginosa; assay: Synergistic antibacterial activity against Pseudomonas aeruginosa ATCC 27853 infected in female KM mouse assessed as epithelial tissue proliferation in skin at 200 ug/ml applied topically in presence of imipenem measured after 3 days; type: functional, organism-based; conditions: dose 200.0 µg/ml, route top, time 3.0 day
[8] = test system: Pseudomonas aeruginosa; assay: Synergistic antibacterial activity against Pseudomonas aeruginosa ATCC 27853 assessed as fractional inhibitory concentration index incubated for 18 hrs in presence of imipenem by two-dimensional microdilution checkerboard assay; type: functional
[9] = test system: Pseudomonas aeruginosa; assay: Synergistic antibacterial activity against Pseudomonas aeruginosa ATCC 27853 assessed as fractional inhibitory concentration index incubated for 18 hrs in presence of ceftazidime by two-dimensional microdilution checkerboard assay; type: functional
[10] = Binding affinity to CM5 chip-immobilized recombinant N-terminal His-tagged Escherichia coli BL21 NagZ extracted from Escherichia coli BL21 assessed as equilibrium dissociation constant by SPR analysis
[11] = test system: Escherichia coli; assay: Inhibition of recombinant N-terminal His-tagged Escherichia coli BL21 NagZ extracted from Escherichia coli BL21 using pNP-GlcNAc as substrate at 100 uM by absorbance based assay relative to control
[12] = test system: Pseudomonas aeruginosa; assay: Synergistic antibacterial activity against Pseudomonas aeruginosa ATCC 27853 infected in female KM mouse assessed as increase in wound contraction in skin at 200 ug/ml applied topically measured after 3 days in presence of ceftazidime; type: functional, organism-based; conditions: dose 200.0 µg/ml, route top, time 3.0 day
[13] = test system: Pseudomonas aeruginosa; assay: Synergistic antibacterial activity against Pseudomonas aeruginosa ATCC 27853 assessed as fold reduction in ceftazidime MIC incubated for 18 hrs by two-dimensional microdilution checkerboard assay; type: functional
[14] = test system: Pseudomonas aeruginosa; assay: Synergistic antibacterial activity against Pseudomonas aeruginosa ATCC 27853 infected in female KM mouse assessed as wound healing rate in skin at 200 ug/ml applied topically measured after 10 days in presence of imipenem relative to control; type: functional; conditions: dose 200 µg/ml; route top; time 10 day
[15] = test system: Pseudomonas aeruginosa; assay: Synergistic antibacterial activity against Pseudomonas aeruginosa ATCC 27853 infected in female KM mouse assessed as exudate formation on wound surface at 200 ug/ml applied topically in presence of imipenem measured after 3 days; type: functional, organism-based; conditions: dose 200.0 µg/ml, route top, time 3.0 day
[16] = Inhibition of recombinant N-terminal His-tagged Escherichia coli BL21 NagZ extracted from Escherichia coli BL21 using different concentrations of substrate pNP-GlcNAc by 4-nitrophenolate ion release based spectrophotometric analysis

RU [3]: < 68
IC50 [4]: 6.4 µM
inhibition [11]: 88%
Structure (SMILES): O=C(/C=C/c1ccc(Cl)c(Cl)c1)N[C@@H](Cc1ccc(I)cc1)C(=O)O
fold change (FC) [1]: >4
Activity [2]: 69.4%
Activity [5]: 95.7%
Activity [6]: 73.2%
Activity [7]: Active
fractional inhibitory concentration index (FICI) [8]: 0.375
fractional inhibitory concentration index (FICI) [9]: 0.375
Kd [10]: 42.8 µM
Activity [12]: Active; Activity Higher Than Imipenem And Compound-Ceftazidime Combination
fold change (FC) [13]: >4
Activity [14]: 93.9%
Activity [15]: Active
Ki [16]: 3.3 µM

— ChEMBL document CHEMBL6182902, “Design, synthesis, and discovery of cinnamoyl amide derivatives as potent NagZ inhibitors with antibacterial activity” (Eur J Med Chem, 2025)
